Laboratory results taken from ChEMBL document CHEMBL1130144, “Ras farnesyltransferase: a new therapeutic target” (J Med Chem, 1997).
Values belong to the compound of their own block, whether it stands above or below them.

How the values were obtained:
[1] = biological target: Protein farnesyltransferase (Bos taurus, UniProt P29702+P49355); assay: Activity against bovine Farnesyltransferase; format: protein-complex assay
[2] = biological target: T1, Protein farnesyltransferase (Rattus norvegicus, UniProt Q02293+Q04631); assay: Activity against rat Farnesyltransferase; format: protein-complex assay
[3] = biological target: Geranylgeranyl transferase type I (Homo sapiens, UniProt P49354+P53609); assay: (§1) Activity against Geranylgeranyl transferase type I; format: protein-complex assay
Mus musculus [4] = assay: Activity against H-Ras-transformed rat-1 tumor cells implanted intraperitoneally in athymic mice; format: functional
[5] = biological target: T1, Protein farnesyltransferase; assay: Activity against rat brain Farnesyltransferase
[6] = biological target: T2, Protein farnesyltransferase (Homo sapiens, UniProt P49354+P49356); assay: Concentration inhibiting farnesylation of p21ras in Ras-transformed cells; format: functional, cell-based
[7] = biological target: T3, Protein farnesyltransferase (Mus musculus) (UniProt Q61239+Q8K2I1); assay: (§2) Inhibition of Ras-processing in H-Ras transformed NIH3T3 fibroblasts; format: functional, cell-based
[8] = biological target: T4, Protein farnesyltransferase (Mus musculus, UniProt Q61239+Q8K2I1); assay: as §2; format: functional, cell-based
NIH3T3 [9] = assay: Inhibition of Ras processing in v-Ras-transformed NIH 3T3 cell growth in soft agar at 50 uM; format: functional, cell-based; settings: Mus musculus
[10] = biological target: T4, Protein farnesyltransferase; assay: Inhibition of Ras processing; format: functional
NIH3T3 [11] = assay: Inhibitory activity against Ha-Ras-transformed NIH3T3 cells; format: functional, Mus musculus
[12] = biological target: T2, Protein farnesyltransferase; assay: Activity against Farnesyltransferase; format: protein-complex assay
[13] = Inhibition of K-Ras-transformed fibrosarcoma growth; format: functional
Mus musculus [14] = species: Mus musculus; assay: Concentration causing regression of MMTV-v-Ras mice bearing palpable tumors; format: functional, organism-based
[15] = biological target: T3, Protein farnesyltransferase (Mus musculus); assay: Concentration disrupting H-Ras processing in human H-Ras BALB/c 3T3 cells; format: functional, cell-based
[16] = as §1
[17] = biological target: T2, Protein farnesyltransferase; assay: Activity against human Farnesyltransferase; format: protein-complex assay
[18] = biological target: T2, Protein farnesyltransferase; assay: Inhibitory activity against farnesyl pyrophosphate; format: protein-complex assay
[19] = biological target: T2, Protein farnesyltransferase; assay: Inhibition of Ras processing in v-Ras-transformed cells; format: functional, cell-based
NIH3T3 [20] = assay: Inhibition in clonogenic assay against H-Ras-transformed NIH3T3 cells; format: functional, cell-based; settings: Mus musculus
Tumor Cell line = assay: Inhibition of colony formation in soft agar of 14 human tumor cell lines; format: functional, cell-based

IC50 [1]: 0.24 µM
Structure (SMILES): CCC(C)[C@@H](CO[C@@H](Cc1ccccc1)C(=O)N[C@@H](CCS(C)(=O)=O)C(=O)O)NC[C@@H](N)CS (stereo not given in full)

IC50 [5]: 2 µM | Concentration [6]: 25 µM
Structure (SMILES): CCC(OCCCCNCCSS(=O)(=O)O)C1CCCCC1 (stereo not given)

Concentration [7]: 5 µM
Structure (SMILES): O=C(N[C@H](Cc1c[nH]cn1)C(=O)N[C@@H](Cc1ccc(OCc2ccccc2)cc1)C(=O)NCCOCc1ccccc1)OCc1ccccc1

Concentration [7]: 2.5 µM
Structure (SMILES): CN(C(=O)[C@@H](Cc1c[nH]cn1)NC(=O)OCc1ccccc1)[C@@H](Cc1ccc(OCc2ccccc2)cc1)C(=O)NCCOCc1ccccc1

Concentration [7]: 0.1 µM
Structure (SMILES): COC(=O)[C@H](CCSC)NC(=O)[C@@H](NC(=O)[C@@H](NC(=O)CCP(=O)(O)C/C=C(\C)CC/C=C(\C)CCC=C(C)C)C(C)C)C(C)C

IC50 [8]: 0.42 µM
Structure (SMILES): C[C@@H](NC(=O)[C@H](Cc1c[nH]c2ccccc12)NC(=O)[C@H](COCc1ccccc1)NC(=O)[C@H](Cc1ccc(OCc2ccccc2)cc1)NC(=O)[C@H](Cc1c[nH]cn1)NC(=O)OCc1ccccc1)C(N)=O

IC50 [3]: 10 µM | IC50 [1]: 0.005 µM | IC50 [10]: 0.5 µM
Structure (SMILES): COCC[C@@H]1CN(C(=O)c2cccc3ccccc23)CCN1C[C@H](N)CS
IC75 (NIH3T3 [11]): 40 mg/kg

IC50 [12]: 0.4 µM
Structure (SMILES): CN(C(=O)[C@@H](Cc1cnc[nH]1)NC(=O)OCc1ccccc1)[C@@H](Cc1ccc(OCc2ccccc2)cc1)C(=O)NCCOCc1ccccc1

IC50 [16]: > 10 µM | IC50 [1]: 0.018 µM
Structure (SMILES): CC[C@H](C)[C@H](NC[C@@H](NC[C@@H](N)CS)[C@@H](C)CC)C(=O)N[C@@H](CCO)C(=O)O

Ki [18]: 0.0052 µM | Concentration [7]: 1 µM
Structure (SMILES): CC(C)=CCC/C(C)=C/CC/C(C)=C/C(O)P(=O)(O)O (stereo not given)

IC50 [19]: 50 µM
Structure (SMILES): CSCC[C@H](NC(=O)[C@H](Cc1ccccc1)NC[C@@H](NC[C@@H](N)CS)C(C)C)C(=O)O

The next lines start with the compound.

Structure (SMILES): COC(=O)[C@H](CCSC)NC(=O)[C@@H]1Cc2ccccc2CN1C(=O)[C@@H](NC[C@@H](N)CS)C(C)(C)C
IC50 [2]: 0.085 µM | IC50 [3]: 0.2 µM | T/C (Mus musculus [4]): 154%

Structure (SMILES): CCC(C)[C@@H](CO[C@@H](Cc1ccccc1)C(=O)N[C@@H](CCS(C)(=O)=O)C(=O)OC)NC[C@@H](N)CS (stereo not given in full)
IC50 [1]: 0.24 µM | IC50 (NIH3T3 [9]): 10 µM

Structure (SMILES): CN1C(=O)[C@]23CC4=CC=C[C@H](O)[C@H]4N2C(=O)[C@@]1(CO)SS3 [GLIOTOXIN]
IC50 [12]: 1.1 µM | Concentration [13]: 6.3 mg/kg

Structure (SMILES): CC[C@H](C)[C@@H](CO[C@@H](Cc1ccccc1)C(=O)N[C@@H](CCS(C)(=O)=O)C(=O)OC(C)C)NC[C@@H](N)CS
Concentration (Mus musculus [14]): 40 mg/kg

Structure (SMILES): CC(C)=CCC/C(C)=C/CC/C(C)=C/CONC(=O)CP(=O)(O)OCOC(=O)C(C)(C)C
IC50 [12]: 2.61 µM

Structure (SMILES): N[C@@H](CS)CNc1ccc(-c2cccc(C(=O)O)c2)cc1
Concentration [15]: 50 µM | IC50 [5]: 0.05 µM

Structure (SMILES): O=C(CN(Cc1ccc(OCc2ccccc2)cc1)C(=O)[C@H](Cc1c[nH]cn1)NC(=O)OCc1ccccc1)NCCOCc1ccccc1
IC50 [12]: 0.26 µM | Concentration [7]: 1 µM

Structure (SMILES): CCCCCCCC/C=C\CCCCCC/C(C(=O)O)=C(\C)C(=O)O [CHAETOMELLIC ACID B]
IC50 [17]: 0.19 µM

Structure (SMILES): CSCC[C@H](NC(=O)[C@@H]1Cc2ccccc2CN1C(=O)[C@@H](NCCc1cnc[nH]1)C(C)C)C(=O)O
IC50 [2]: 0.00079 µM | IC50 (NIH3T3 [20]): 3.8 µM

Structure (SMILES): CC(C)=CCC/C(C)=C/CC/C(C)=C/CONC(=O)COP(=O)(O)O
IC50 [12]: 0.075 µM

Structure (SMILES): COC(=O)[C@H](CCSC)NC(=O)[C@H](/C=C\[C@@H](/C=C/[C@@H](N)CS)C(C)C)Cc1ccccc1
IC50 (Tumor Cell line): 60 µM
